Reference: the supplement of paper PMC10307832

Key:
Test in all cases: relative viability (nuclei count vs DMSO), 5 days (fraction); higher = more cells survive
Crizotinib + Vorinostat = compound: C[C@@H](Oc1cc(-c2cnn(C3CCNCC3)c2)cnc1N)c1c(Cl)ccc(F)c1Cl [Crizotinib] + O=C(CCCCCCC(=O)Nc1ccccc1)NO [Vorinostat] (partner 1 µM)
In short: (§1)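 Relative viability is defined as nuclei in treated wells over nuclei in vehicle wells. Duplicate plates were run and medians reported. Lung cancer cell lines in 1536-well plates were dosed by pin tool one day after seeding, with one drug or with a fixed anchor-drug dose plus five library-drug doses (not always all listed) in √10 steps, and nuclei were counted after 5 days.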

Crizotinib + Phenformin = compound: C[C@@H](Oc1cc(-c2cnn(C3CCNCC3)c2)cnc1N)c1c(Cl)ccc(F)c1Cl [Crizotinib] + N=C(N)NC(=N)NCCc1ccccc1 [Phenformin] (partner 250 µM)
In short: as §1

Crizotinib + Decitabine = compound: C[C@@H](Oc1cc(-c2cnn(C3CCNCC3)c2)cnc1N)c1c(Cl)ccc(F)c1Cl [Crizotinib] + Nc1ncn([C@H]2C[C@H](O)[C@@H](CO)O2)c(=O)n1 [Decitabine] (partner 2 µM)
In short: as §1

Carfilzomib + Lapatinib = compound: CC(C)C[C@H](NC(=O)[C@H](CCc1ccccc1)NC(=O)CN1CCOCC1)C(=O)N[C@@H](Cc1ccccc1)C(=O)N[C@@H](CC(C)C)C(=O)[C@@]1(C)CO1 [Carfilzomib] + CS(=O)(=O)CCNCc1ccc(-c2ccc3ncnc(Nc4ccc(OCc5cccc(F)c5)c(Cl)c4)c3c2)o1 [Lapatinib] (partner 2 µM)
In short: as §1

Row | Cell Line | relative viability (Crizotinib + Vorinostat; first compound 0.01 µM) | relative viability (Crizotinib + Vorinostat; first compound 0.03162 µM) | relative viability (Crizotinib + Vorinostat; first compound 0.1 µM) | relative viability (Crizotinib + Vorinostat; first compound 0.3162 µM) | relative viability (Crizotinib + Vorinostat; first compound 1 µM) | relative viability (Crizotinib + Phenformin; first compound 0.01 µM) | relative viability (Crizotinib + Phenformin; first compound 0.03162 µM) | relative viability (Crizotinib + Phenformin; first compound 0.1 µM) | relative viability (Crizotinib + Decitabine; first compound 0.01 µM) | relative viability (Crizotinib + Decitabine; first compound 0.03162 µM) | relative viability (Crizotinib + Decitabine; first compound 0.1 µM) | relative viability (Crizotinib + Decitabine; first compound 0.3162 µM) | relative viability (Crizotinib + Decitabine; first compound 1 µM) | relative viability (Carfilzomib + Lapatinib; first compound 0.001 µM) | relative viability (Carfilzomib + Lapatinib; first compound 0.003162 µM) | relative viability (Carfilzomib + Lapatinib; first compound 0.01 µM) | relative viability (Carfilzomib + Lapatinib; first compound 0.03162 µM) | relative viability (Carfilzomib + Lapatinib; first compound 0.1 µM) | relative viability (Crizotinib + Phenformin; first compound 0.3162 µM) | relative viability (Crizotinib + Phenformin; first compound 1 µM)
1 | NCI-H441 | 0.799 | 0.774 | 0.63 | 0.768 | 0.965 | 0.671 | 0.87 | 0.713 | 0.242 | 0.238 | 0.248 | 0.23 | 0.244 | – | – | – | – | – | – | –
2 | ABC-1 | 1.04 | 1.06 | 1.22 | – | 1.02 | – | 0.22 | 0.211 | 1.09 | – | 1.02 | – | 1.15 | 1.08 | 1.54 | 1.2 | 0.499 | 0.516 | 0.238 | 0.269
3 | NCI-H2170 | – | 0.838 | 0.746 | 0.795 | 0.828 | 0.394 | 0.443 | 0.419 | 0.407 | 0.475 | 0.467 | 0.402 | 0.471 | 0.264 | 0.263 | 0.269 | 0.312 | 0.207 | 0.428 | 0.423
4 | NCI-H1944 | 0.446 | 0.508 | 0.493 | 0.571 | 0.54 | 0.19 | 0.194 | 0.189 | 0.387 | 0.412 | 0.463 | 0.409 | 0.45 | 0.762 | 0.858 | 0.7 | 0.793 | 0.326 | 0.195 | 0.198
5 | PC-3 [JPC-3] | 0.687 | 0.903 | 1.16 | – | 0.71 | 0.469 | 0.506 | 0.482 | 0.794 | 0.809 | 0.839 | – | 0.865 | 0.42 | 0.455 | 0.463 | 0.435 | 0.209 | 0.452 | 0.482
6 | NCI-H1648 | – | 0.412 | 0.341 | 0.506 | 0.619 | – | – | – | – | 0.498 | 0.401 | 0.488 | 0.452 | – | – | – | – | – | – | –
7 | NCI-H1975 | 0.682 | 0.693 | 0.695 | 0.708 | 0.729 | 0.376 | 0.419 | 0.4 | 0.404 | 0.322 | 0.466 | 0.31 | 0.39 | 0.76 | 0.911 | 0.389 | 0.116 | 0.135 | 0.41 | 0.399
8 | NCI-H1623 | – | – | – | – | – | 0.557 | 0.499 | 0.611 | – | – | – | – | – | – | – | – | – | – | 0.608 | 0.551
9 | NCI-H1792 | – | – | – | – | – | – | 0.357 | 0.314 | 0.563 | 0.51 | 0.523 | – | 0.514 | 0.794 | 0.896 | 0.939 | 0.985 | 0.697 | – | 0.328
10 | CAL-12T | 0.855 | 0.788 | 0.647 | 0.713 | 0.725 | 0.503 | 0.609 | 0.606 | – | – | – | – | – | – | 0.691 | 0.759 | 0.618 | 0.207 | – | 0.558
11 | IA-LM | 0.977 | 0.958 | 1.07 | 0.949 | 0.907 | – | – | – | – | – | – | – | – | 0.846 | 0.667 | 0.434 | 0.0463 | 0.081 | – | –
12 | NCI-H1703 | – | – | – | – | – | – | – | – | – | – | – | – | – | 1.02 | 1.19 | 0.207 | 0.149 | 0.173 | – | –
13 | LCLC-103H | 0.716 | 0.869 | 0.841 | 0.434 | 0.8 | 0.348 | 0.313 | 0.337 | 0.672 | 0.759 | 0.737 | 0.754 | 0.723 | – | – | – | – | – | 0.328 | 0.294
14 | Calu-6 | – | – | – | – | – | – | – | – | – | – | – | – | – | 1.08 | 1.12 | 1.13 | 0.135 | 0.116 | – | –
15 | NCI-H2342 | 0.799 | 0.844 | 0.714 | 0.713 | 0.814 | 0.512 | 0.567 | 0.54 | 0.761 | 0.799 | 0.781 | 0.723 | – | – | – | – | – | – | 0.549 | 0.544
16 | A549 | – | – | – | – | – | 0.165 | 0.136 | 0.167 | 0.213 | 0.216 | 0.324 | 0.16 | 0.257 | 0.885 | 1.05 | 0.931 | 0.359 | 0.0624 | 0.141 | 0.172
17 | EBC-1 | – | – | – | – | – | – | – | – | – | – | – | – | – | 0.228 | 0.203 | 0.208 | 0.169 | 0.144 | – | –
18 | NCI-H2228 | 0.46 | 0.843 | 0.402 | 0.57 | 0.683 | 0.23 | 0.241 | 0.29 | – | – | – | – | – | 1.28 | 1.23 | 0.752 | 0.104 | 0.161 | 0.172 | 0.164
19 | NCI-H1299 | – | – | – | – | – | – | – | – | – | – | – | – | – | 0.98 | 1.01 | 0.982 | 0.681 | 0.147 | – | –
20 | NCI-H522 | 0.851 | 1.03 | 0.803 | 0.877 | 0.867 | 0.702 | 0.612 | 0.527 | 0.649 | 0.709 | 0.762 | 0.657 | 0.658 | – | – | – | – | – | 0.768 | 0.649
21 | SW 900 | 0.422 | 0.615 | 0.511 | 0.481 | 0.712 | 0.556 | 0.651 | 0.652 | 0.418 | 0.436 | 0.403 | 0.449 | 0.459 | – | – | – | – | – | 0.586 | 0.723
22 | NCI-H1563 | – | – | – | – | – | 0.607 | 0.681 | 0.655 | – | – | – | – | – | 0.926 | 1.1 | 0.927 | 0.771 | 0.506 | 0.637 | 0.682
23 | ChaGo-K-1 | 0.703 | 0.706 | 0.712 | 0.4 | 0.727 | 0.457 | 0.511 | 0.486 | 0.485 | 0.488 | 0.528 | 0.463 | 0.536 | – | – | – | – | – | 0.329 | 0.457
